Measured values published in ChEMBL document CHEMBL5126576, “From tryptophan to novel mitochondria-disruptive agent, synthesis and biological evaluation of 1,2,3,6-tetrasubstituted carbazoles” (Eur J Med Chem, 2022).
The source made the active and inactive calls. No cut-off for these calls is given here.

Legend:
HCT-116 [1] = experiment: Antiproliferative activity against human HCT-116 cells after 72 hrs by MTT assay; type: functional, cell-based; conditions: HCT-116, 72 h
[2] = Antiproliferative activity against human HEK293 cells after 72 hrs by MTT assay; type: toxicity, cell-based
U2OS [3] = experiment: Antiproliferative activity against human U2OS cells after 72 hrs by MTT assay; type: functional, cell-based
A549 [4] = experiment: Antiproliferative activity against human A549 cells after 72 hrs by MTT assay; type: functional, cell-based; conditions: A549, 72 h
MCF7 = experiment: Antiproliferative activity against human MCF7 cells after 72 hrs by MTT assay; type: functional, cell-based; conditions: MCF7, 72 h
HepG2 = experiment: Antiproliferative activity against human HepG2 cells after 72 hrs by MTT assay; type: functional, cell-based; conditions: HepG2, 72 h
HCT-116 [5] = experiment: Induction of cell cycle arrest in human HCT-116 cells assessed as increase in number of cells at S phase at IC50 measured after 72 hrs by flow cytometry; type: functional, cell-based
A549 [6] = experiment: Induction of cell cycle arrest in human A549 cells assessed as increase in number of cells at S phase at IC50 measured after 72 hrs by flow cytometry; type: functional, cell-based
HCT-116 [7] = experiment: Induction of cell cycle arrest in human HCT-116 cells assessed as slight increase in G0/G1 phase at IC50 measured after 24 hrs by flow cytometry; type: functional, cell-based
A549 [8] = experiment: Induction of cell cycle arrest in human A549 cells assessed as moderate increase in S phase at IC50 measured after 24 hrs by flow cytometry; type: functional, cell-based
U2OS [9] = experiment: Induction of cell cycle arrest in human U2OS cells assessed as moderate increase in S phase at IC50 measured after 24 hrs by flow cytometry; type: functional, cell-based
U2OS [10] = experiment: Induction of DNA damage in human U2OS cells assessed as increase in H2AX phosphorylation measured after 48 hrs by immunofluorescence analysis relative to control; type: functional
HCT-116 [11] = experiment: Induction of mitochondrial membrane potential loss in human HCT116 cells assessed as green fluorescence intensity by JC1 staining-based flow cytometry analysis; type: functional, cell-based
A549 [12] = experiment: Induction of cell cycle arrest in human A549 cells assessed as slight increase in G0/G1 phase at IC50 measured after 24 hrs by flow cytometry; type: functional, cell-based
U2OS [13] = experiment: Inhibition of colony formation in human U2OS cells at 0.5 to 10 uM measured after 24 hrs crystal violet staining based assay; type: functional, cell-based; conditions: dose 0.5-10 µM
HCT-116 [14] = experiment: Induction of cell cycle arrest in human HCT-116 cells assessed as moderate increase in S phase at IC50 measured after 24 hrs by flow cytometry; type: functional, cell-based
U2OS [15] = experiment: Induction of DNA damage in human U2OS cells assessed as increase in H2AX phosphorylation measured after 72 hrs by immunofluorescence analysis relative to control; type: functional
HCT-116 [16] = experiment: Inhibition of cell migration in human HCT-116 cells at 5 to 10 uM measured after 24 hrs by wound healing assay; type: functional, cell-based; conditions: dose 5-10 µM
HCT-116 [17] = experiment: Induction of apoptosis in human HCT-116 cells assessed as increase in caspase 3/7 activity at IC50 measured after 6 to 48 hrs by […] based flow cytometry; type: functional, cell-based; conditions: time 6-48 hrs
HCT-116 [18] = experiment: Induction of apoptosis in human HCT-116 cells assessed as early and late apoptotic cells at IC50 measured after 24 hrs by Annexin-V-FITC/propidium iodide staining based flow cytometry; type: functional, cell-based
U2OS [19] = experiment: Induction of reactive oxygen species generation in human U2OS cells by DCFH-DA staining based assay; type: functional, cell-based; conditions: time 1-24 hrs
A549 [20] = experiment: Induction of cell cycle arrest in human A549 cells assessed as increase in number of cells at G2/M phase at IC50 measured after 24 to 48 hrs by flow cytometry; type: functional, cell-based; conditions: time 24-48 hrs
HCT-116 [21] = experiment: Induction of DNA damage in human HCT-116 cells assessed as increase in H2AX phosphorylation measured after 24 to 72 hrs by immunofluorescence analysis; type: functional, cell-based; conditions: time 24-72 hrs
HCT-116 [22] = experiment: Induction of reactive oxygen species generation in human HCT116 cells at 15 uM after 24 hrs by DCFH-DA staining based assay relative to control; type: functional
U2OS [23] = experiment: Induction of cell cycle arrest in human U2OS cells assessed as increase in G2/M phase at IC50 measured after 24 hrs by flow cytometry; type: functional, cell-based
HCT-116 [24] = experiment: Inhibition of colony formation in human HCT-116 cells at 0.5 to 10 uM measured after 24 hrs crystal violet staining based assay; type: functional, cell-based; conditions: dose 0.5-10 µM
HCT-116 [25] = experiment: Induction of mitochondrial morphological changes in human HCT-116 cells assessed as short circular-shaped mitochondria measured after 6 hrs by confocal microscopic analysis; type: functional, cell-based
HCT-116 [26] = experiment: Induction of apoptosis in human HCT-116 cells assessed as early apoptotic cells at IC50 measured after 6 hrs by Annexin-V-FITC/propidium iodide staining based flow cytometry; type: functional
U2OS [27] = experiment: Induction of cell cycle arrest in human U2OS cells assessed as slight increase in G0/G1 phase at IC50 measured after 24 hrs by flow cytometry; type: functional, cell-based
HCT-116 [28] = experiment: Inhibition of cell migration in human HCT-116 cells at 10 uM measured after 60 hrs by wound healing assay relative to control; type: functional
U2OS [29] = experiment: Induction of mitochondrial morphological changes in human U2OS cells assessed as short circular-shaped mitochondria measured after 6 hrs by confocal microscopic analysis; type: functional, cell-based
HCT-116 [30] = experiment: Induction of cell senescence in human HCT-116 cells assessed by increase SA-beta-Gal activity measured after 24 to 48 hrs by microscopic analysis; type: functional, cell-based; conditions: time 24-48 hrs
U2OS [31] = experiment: Inhibition of cell migration in human U2OS cells at 5 to 10 uM measured after 24 to 48 hrs by wound healing assay; type: functional, cell-based; conditions: dose 5-10 µM, time 24-48 hrs
HCT-116 [32] = experiment: Induction of apoptosis in human HCT-116 cells assessed as necrotic cells at IC50 measured after 48 hrs by Annexin-V-FITC/propidium iodide staining based flow cytometry relative to control; type: functional
U2OS [33] = experiment: Induction of mitochondrial membrane potential loss in human U2OS cells assessed as green fluorescence intensity by JC1 staining-based flow cytometry analysis; type: functional, cell-based
[34] = Drug uptake in human HCT-116 cells assessed as accumulation in lipid droplets at IC50 measured after 2 hr by immunofluorescence analysis; type: ADME, cell-based; conditions: hct-116, 2 h
HCT-116 [35] = experiment: Induction of mitochondrial morphological changes in human HCT-116 cells assessed as reduction in mitochondrial length measured after 6 hrs by confocal microscopic analysis relative to control; type: functional; design: scale not given: the % may be the effect or the level left
HCT-116 [36] = experiment: Induction of cell cycle arrest in human HCT-116 cells assessed as increase in G2/M phase at IC50 measured after 24 hrs by flow cytometry; type: functional, cell-based
A549 [37] = experiment: Induction of cell cycle arrest in human A549 cells assessed as increase in G2/M phase at IC50 measured after 24 hrs by flow cytometry; type: functional, cell-based

IC50 (HCT-116 [1]) [µM] | IC50 (U2OS [3]) [µM] | IC50 (A549 [4]) [µM] | IC50 (MCF7) [µM] | IC50 (HepG2) [µM] | Compound | IC50 at 72 h [2] [µM] | Activity (HCT-116 [11]) | inhibition (U2OS [13]) | inhibition (HCT-116 [16]) | Activity (HCT-116 [17]) | Activity (HCT-116 [18]) | Activity (U2OS [19]) | Activity (HCT-116 [21]) | Activity (HCT-116 [22]) [%] | inhibition (HCT-116 [24]) | Activity (HCT-116 [25]) | inhibition at 10 µM (HCT-116 [28]) [%] | Activity (U2OS [29]) | Activity (HCT-116 [30]) | inhibition (U2OS [31]) | also measured
> 50 | > 50 | > 50 | > 50 | > 50 | CCOC(=O)c1c(O)c(NC(=O)OC(C)(C)C)cc2c1[nH]c1ccc(NC(=O)OC(C)(C)C)cc12 | > 50 | – | – | – | – | – | – | – | – | – | – | – | – | – | – | –
> 50 | > 50 | 16.9 | > 50 | > 50 | CCOC(=O)Nc1cc2c([nH]c3ccccc32)c(C(=O)OCC)c1O | > 50 | – | – | – | – | – | – | – | – | – | – | – | – | – | – | –

Further lines, the molecule ahead of its results:

Compound | IC50 (HCT-116 [1]) [µM] | IC50 (U2OS [3]) [µM] | IC50 (A549 [4]) [µM] | IC50 (MCF7) [µM] | IC50 (HepG2) [µM] | IC50 at 72 h [2] [µM] | Activity (HCT-116 [11]) | inhibition (U2OS [13]) | inhibition (HCT-116 [16]) | Activity (HCT-116 [17]) | Activity (HCT-116 [18]) | Activity (U2OS [19]) | Activity (HCT-116 [21]) | Activity (HCT-116 [22]) [%] | inhibition (HCT-116 [24]) | Activity (HCT-116 [25]) | inhibition at 10 µM (HCT-116 [28]) [%] | Activity (U2OS [29]) | Activity (HCT-116 [30]) | inhibition (U2OS [31]) | also measured
CCOC(=O)c1c(O)c(NC(C)=O)cc2c1[nH]c1ccccc12 | > 50 | > 50 | > 50 | > 50 | > 50 | > 50 | – | – | – | – | – | – | – | – | – | – | – | – | – | – | –
CCOC(=O)c1c(O)c(NC(=O)OC(C)(C)C)cc2c1[nH]c1ccc(OC(C)=O)cc12 | 46.4 | 37.5 | > 50 | > 50 | > 50 | > 50 | – | – | – | – | – | – | – | – | – | – | – | – | – | – | –
CC(C)(C)OC(=O)Nc1cc2c([nH]c3ccccc32)c(C(=O)O)c1O | 3.75 | 2.34 | 11.5 | > 50 | > 50 | > 50 | Active | Active | Active | Active | Active | Active | Active | 64.2 | Active | Active | 64.4 | Active | Active | Active | Activity (HCT-116 [5]): Active; Activity (A549 [6]): Active; Activity (HCT-116 [7]): Active; Activity (A549 [8]): Active; Activity (U2OS [9]): Active; Activity (U2OS [10]): 51%; Activity (A549 [12]): Active; Activity (HCT-116 [14]): Active; Activity (U2OS [15]): 68.2%; Activity (A549 [20]): Active; Activity (U2OS [23]): Active; Activity (HCT-116 [26]): 11.23%; Activity (U2OS [27]): Active; Activity (HCT-116 [32]): 2.38%; Activity (U2OS [33]): Active; Drug uptake [34]: Active; Activity (HCT-116 [35]): 36.71%; Activity (HCT-116 [36]): Active; Activity (A549 [37]): Active
CCOC(=O)c1c(O)c(NC(=O)OC(C)(C)C)cc2c1[nH]c1ccccc12 | 10.7 | 15.7 | > 50 | > 50 | > 50 | > 50 | Active | Active | Active | Active | Active | Active | Active | 19.6 | Active | Active | 57 | Active | Active | Active | Activity (HCT-116 [32]): 1.16%; Activity (U2OS [33]): Active; Drug uptake [34]: Active; Activity (HCT-116 [35]): 50.34%
